Results taken from publication PMC5692573 (Proceedings of the National Academy of Sciences of the …, 2017).
Each block holds one molecule with its values, some of them ahead of it.

Key:
[1] = target: Kif18A (Homo sapiens, UniProt Q8NI77); test: cryo-EM reconstruction; type: binding
[2] = target: αβ-tubulin heterodimer (in paclitaxel-stabilized microtubules, or as curved tubulin in rings); test: cryo-EM 2D class averages

Molecule: Nc1ncnc2c1ncn2[C@@H]1O[C@H](CO[P@](=O)(O)O[P@](=O)(O)NP(=O)(O)O)[C@@H](O)[C@H]1O [AMPPNP]
cryo-EM reconstruction (~6 Å) of MT-bound Kif18A_MDNL with AMPPNP [1]: In the presence of AMPPNP, the nucleotide-binding site is clearly occupied by the bound nucleotide

stoichiometry N [2]: 1
B1: Kif18A_MDNL, monomeric human Kif18A motor-neck linker construct (domain or fragment)
chain: MSVTEEDLCHHMKVVVRVRPENTKEKAAGFHKVVHVVDKHILVFDPKQEEVSFFHGKKTTNQNVIKKQNKDLKFVFDAVFDETSTQSEVFEHTTKPILRSFLNGYNCTVLAYGATGAGKTHTMLGSADEPGVMYLTMLHLYKCMDEIKEEKICSTAVSYLEVYNEQIRDLLVNSGPLAVREDTQKGVVVHGLTLHQPKSSEEILHLLDNGNKNRTQHPTDMNATSSRSHAVFQIYLRQQDKTASINQNVRIAKMSLIDLAGSERASTSGAKGTRFVEGTNINRSLLALGNVINALADSKRKNQHIPYRNSKLTRLLKDSLGGNCQTIMIAAVSPSSVFYDDTYNTLKYANRAKDIKSSLKSNVLNVNNHITQYV
